Experimental data: patent US20050215589A1, “Inhibitors of 5-HT2A receptor” (priority 2003, published 2005)

Legend:
[1] = target: T1, 5-HT2A (Homo sapiens, UniProt P28223); experiment: FLIPR functional assay, inhibition of the 5-HT-evoked peak response (primary screening and IC50 determination); type: cell-based; design: expressed in transfected cells; host or cells: CHO; conditions: CHO cells expressing 5-HT2A, 15 min pre-incubation, Ki calculated from IC50 (Cheng-Prusoff)
Description: CHO cells expressing 5-HT2A receptors seeded in 384 well plates are pre-loaded with Fluo-4AM fluorescent dye and then incubated with compound (10 μM for primary screen) for 15 min. Fluorescent intensity is recorded using a Fluorometric imaging plate reader (FLIPR384, Molecular Devices) and inhibition of the peak response evoked by 5-HT (EC70 concentration) is calculated.
IC50 determinations are performed utilizing the same functional assay as described for primary screening (15 min antagonist compound pre-incubation), applying the compounds in the dose range of 3 nM to 10 μM.
(§1) The calculation of the Ki values for the inhibitors was performed by use of Activity Base. The Ki value is calculated from IC50 using the Cheng Prushoff equation (with reversible inhibition that follows the Michaelis-Menten equation): […] [Cheng, Y. C.; Prushoff, W. H. Biochem. Pharmacol. 1973, 22, 3099-3108].

[2] = target: T2, 5-HT6 (Homo sapiens, UniProt P50406); experiment: Radioligand displacement binding (3H-5-HT); conditions: recombinant human receptor in CHO or HEK293; tracer 3H-5-HT
T2 construct: expressed in transfected cells; host or cells: CHO or HEK293
T2 sequence (P50406 whole entry): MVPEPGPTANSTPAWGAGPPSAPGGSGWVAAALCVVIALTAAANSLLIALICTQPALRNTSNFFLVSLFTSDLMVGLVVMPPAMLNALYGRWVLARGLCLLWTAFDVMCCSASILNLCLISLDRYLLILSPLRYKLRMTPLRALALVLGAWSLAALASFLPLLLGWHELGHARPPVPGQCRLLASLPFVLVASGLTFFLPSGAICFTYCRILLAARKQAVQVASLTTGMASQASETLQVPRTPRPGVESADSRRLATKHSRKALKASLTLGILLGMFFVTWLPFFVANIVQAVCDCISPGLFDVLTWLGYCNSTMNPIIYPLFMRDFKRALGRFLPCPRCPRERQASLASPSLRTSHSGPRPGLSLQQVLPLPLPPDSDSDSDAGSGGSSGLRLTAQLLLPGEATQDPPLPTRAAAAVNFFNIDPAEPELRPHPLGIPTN
Description: (§2) The affinity constants of compounds were determined using recombinant human serotonin receptors stably expressed in fibroblast cell lines (CHO or HEK293), measuring the ability of the compounds to displace radio-labelled tracers using scintillation proximity assays or filter binding assays. For 5-HT1B, 5-HT2B and 5-HT2C receptor binding studies ^3H-LSD was used as radio ligand, for 5-HT2A and 5-HT6 ^3H-5-HT was used as tracer, while the binding constant to 5-HT1A was determined using ^3H-8-OH-DPAT. The non-selective serotonin receptor antagonist mianserine was used as reference substance.
as §1

[3] = target: T3, 5-HT1B (Homo sapiens, UniProt P28222); experiment: Radioligand displacement binding (3H-LSD); conditions: recombinant human receptor in CHO or HEK293; tracer 3H-LSD
T3 construct: expressed in transfected cells; host or cells: CHO or HEK293
T3 sequence (P28222 whole entry): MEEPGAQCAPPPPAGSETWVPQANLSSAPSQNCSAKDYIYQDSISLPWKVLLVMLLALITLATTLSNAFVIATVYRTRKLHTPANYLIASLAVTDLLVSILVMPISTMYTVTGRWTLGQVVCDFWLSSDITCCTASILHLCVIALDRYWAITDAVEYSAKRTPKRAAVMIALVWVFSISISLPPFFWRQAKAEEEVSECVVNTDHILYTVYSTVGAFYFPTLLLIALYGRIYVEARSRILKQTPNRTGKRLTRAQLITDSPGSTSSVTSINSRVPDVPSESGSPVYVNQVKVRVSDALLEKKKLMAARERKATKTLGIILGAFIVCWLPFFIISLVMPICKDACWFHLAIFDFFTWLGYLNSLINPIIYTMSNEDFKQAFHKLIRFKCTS
Description: as §2, §1

[4] = target: T4, 5-HT2B (Homo sapiens, UniProt P41595); experiment: Radioligand displacement binding (3H-LSD); conditions: recombinant human receptor in CHO or HEK293; tracer 3H-LSD
T4 construct: expressed in transfected cells; host or cells: CHO or HEK293
T4 sequence (P41595 whole entry): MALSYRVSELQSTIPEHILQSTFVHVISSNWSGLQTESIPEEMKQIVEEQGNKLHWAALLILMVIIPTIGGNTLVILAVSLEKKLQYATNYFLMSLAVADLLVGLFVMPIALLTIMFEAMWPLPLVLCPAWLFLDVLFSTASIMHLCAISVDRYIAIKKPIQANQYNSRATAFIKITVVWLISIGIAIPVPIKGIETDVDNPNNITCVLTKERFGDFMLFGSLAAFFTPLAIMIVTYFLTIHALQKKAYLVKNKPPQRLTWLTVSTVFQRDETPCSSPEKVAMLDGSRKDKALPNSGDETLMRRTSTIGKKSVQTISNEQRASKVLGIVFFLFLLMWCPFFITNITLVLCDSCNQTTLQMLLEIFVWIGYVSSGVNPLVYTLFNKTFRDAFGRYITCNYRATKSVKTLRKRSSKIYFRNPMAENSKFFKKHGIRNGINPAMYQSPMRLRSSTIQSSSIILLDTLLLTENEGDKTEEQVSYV
Description: as §2, §1

[5] = target: T1, 5-HT2A; experiment: Radioligand displacement binding (3H-5-HT); design: expressed in transfected cells; host or cells: CHO or HEK293
Description: as §2, §1

[6] = target: T5, 5-HT2C (Homo sapiens, UniProt P28335); experiment: Radioligand displacement binding (3H-LSD); design: expressed in transfected cells; host or cells: CHO or HEK293; conditions: recombinant human receptor in CHO or HEK293; tracer 3H-LSD
T5 sequence (P28335 33-458): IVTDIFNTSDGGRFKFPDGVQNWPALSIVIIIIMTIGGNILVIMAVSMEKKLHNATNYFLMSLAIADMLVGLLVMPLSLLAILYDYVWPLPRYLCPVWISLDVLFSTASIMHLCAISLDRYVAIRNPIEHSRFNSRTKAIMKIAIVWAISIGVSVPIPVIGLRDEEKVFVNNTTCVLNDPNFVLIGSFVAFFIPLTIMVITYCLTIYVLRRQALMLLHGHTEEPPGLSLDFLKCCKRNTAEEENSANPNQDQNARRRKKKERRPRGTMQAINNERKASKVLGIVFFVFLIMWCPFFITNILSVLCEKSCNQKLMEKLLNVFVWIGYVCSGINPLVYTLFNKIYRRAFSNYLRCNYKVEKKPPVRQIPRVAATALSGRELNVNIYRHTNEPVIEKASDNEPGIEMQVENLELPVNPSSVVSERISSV
Description: as §2, §1

[7] = target: T5, 5-HT2C; experiment: FLIPR based assay, effect on 10 nM 5-HT induced Ca2+-currents; type: cell-based; conditions: FLIPR functional assays
Description: The activity at 5-HT2C receptors was studied in a FLIPR based assay, measuring the effect of compounds on 10 nM 5-HT induced_Ca^2+-currents.

[8] = target: T6, 5-HT1A (Homo sapiens, UniProt P08908); experiment: Radioligand displacement binding (3H-8-OH-DPAT); conditions: recombinant human receptor in CHO or HEK293; tracer 3H-8-OH-DPAT
T6 construct: expressed in transfected cells; host or cells: CHO or HEK293
T6 sequence (P08908 1-422): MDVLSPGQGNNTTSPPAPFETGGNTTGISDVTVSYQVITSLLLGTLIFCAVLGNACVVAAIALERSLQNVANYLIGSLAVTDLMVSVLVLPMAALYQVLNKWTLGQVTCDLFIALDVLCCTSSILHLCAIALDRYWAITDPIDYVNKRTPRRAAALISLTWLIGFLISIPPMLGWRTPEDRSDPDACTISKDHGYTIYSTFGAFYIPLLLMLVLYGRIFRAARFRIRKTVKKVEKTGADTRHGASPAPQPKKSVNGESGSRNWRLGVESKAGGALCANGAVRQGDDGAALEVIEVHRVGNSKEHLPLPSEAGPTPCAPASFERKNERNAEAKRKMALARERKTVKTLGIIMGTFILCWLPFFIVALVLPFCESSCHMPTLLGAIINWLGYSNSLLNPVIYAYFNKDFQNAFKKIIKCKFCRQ
Description: as §2, §1

T1 sequence (P28223 whole entry): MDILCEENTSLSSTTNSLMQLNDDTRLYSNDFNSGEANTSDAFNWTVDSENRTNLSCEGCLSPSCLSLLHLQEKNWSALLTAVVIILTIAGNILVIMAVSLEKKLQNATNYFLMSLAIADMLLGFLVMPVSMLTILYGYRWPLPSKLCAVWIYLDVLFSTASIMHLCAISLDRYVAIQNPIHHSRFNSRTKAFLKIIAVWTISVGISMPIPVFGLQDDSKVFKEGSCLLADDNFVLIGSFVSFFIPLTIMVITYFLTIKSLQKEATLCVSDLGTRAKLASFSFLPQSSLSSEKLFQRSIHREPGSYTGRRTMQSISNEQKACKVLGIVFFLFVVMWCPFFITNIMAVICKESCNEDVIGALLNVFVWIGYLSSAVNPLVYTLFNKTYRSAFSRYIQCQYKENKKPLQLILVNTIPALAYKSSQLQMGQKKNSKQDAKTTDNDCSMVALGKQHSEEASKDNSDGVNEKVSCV

COc1cccc(OC)c1OCCN1CCC(C(=O)NC(=O)Nc2cccc(C(F)(F)F)c2)CC1 [Example 2, 1-[2-(2,6-dimethoxyphenoxy)ethyl]-N-({[3-(trifluoromethyl)phenyl]amino}carbonyl)piperidine-4-carboxamide]
Ki [1]: 32.3 nM | Ki [2]: > 1000 nM | Ki [3]: > 1000 nM | Ki [4]: > 1000 nM | Selectivity over five other serotonin receptors (5-HT2C, 5-HT2B, 5-HT1A, 5-HT6 and 5-HT1B) ([5]; binding, 5-HT2A versus the other receptors): highly selective | Affinity for the 5-HT2A receptor subtype (Ki, in words) ([5]; equilibrium displacement binding): in the nanomolar range | Ki ([5]; recombinant human receptor in CHO or HEK293, tracer 3H-5-HT): 23 nM | Ki [6]: > 1000 nM | Selectivity at 5-HT2A versus the 5-HT2C receptor in terms of efficacy [7]: selective | Ki [8]: > 1000 nM
